{"source": "patent US5929038A", "about": "“Pharmaceutical preparations which inhibit hepatitis B virus (HBV) replication” (Choongwae Pharmaceutical Co., Ltd., priority 1992, dated 1999)", "origin": "cited, not measured here", "key": {"[1]": {"tested_on": "toxic Amanita mushrooms' poisoning", "conditions": "in vivo; cited from earlier work"}, "[2]": {"tested_on": "beagle dogs intoxicated by toxic mushroom extracts", "conditions": "cited from earlier work"}}}
{"molecule": "OCC1=CC(O)C2C=COC(O[C@@H]3O[C@H](CO)[C@@H](O)[C@H](O)[C@H]3O)C12", "note": "(stereo partly drawn) [Aucubin, 1,4,5, 7α-tetrahydro-5-hydroxy-17-(hydroxymethyl)cyclopenta[c]pyran-1-yl-β-D-glucopyranose]", "values": [{"measurement": "Detoxification activity", "setting": "[1]", "value": "detoxifies toxic Amanita mushrooms' poisoning"}, {"measurement": "antidotal activity", "setting": "[2]", "value": "potent antidotal activity"}]}
